# Legend:
# [1] = tested on: choroid plexus (ChP) epithelial cells; experiment: Calcium imaging of LV ChP explants exposed to plasma; type: cell-based, mouse; conditions: LV ChP explant, FoxJ1-Cre::GCaMP6f mice
# Method: […] Imaging and analyses were performed as described (12). Plasma (using citrate as anti-coagulant instead of EDTA, same protocol as described above) was delivered to explants by topical application from a glass capillary needle and serum was delivered to the lateral ventricle of live mice during imaging through the injection cannula. Serum was prepared by collecting blood using the same approach as described above, incubating on ice for 30 min. and then centrifuging for 10 min. at 5,000 g twice to separate the supernatant.
# [2] = tested on: intraventricular hemorrhage (IVH) model; experiment: E14.5 IVH model with calcium signaling disruption (LiCl pretreatment or EDTA), MRI and infusion test; type: in vivo, mouse
# Source text: Timed pregnant mice (E14.5) were anesthetized with isoflurane and kept warm. Following laparotomy, AAV solution or age-matched whole blood was delivered into the lateral ventricle of each embryo (located visually) using glass capillary pipettes. The uterine horns were returned to the abdomen and the incisions sutured. When age-matched whole blood was used, the donor mouse was anesthetized with ketamine/xylazine and warmed. Fresh blood was obtained from the jugular veins with a glass capillary pipette and immediately delivered to the recipient.
# Mice were imaged using Bruker BioSpec small animal MRI (7T) at P14 or P25 while under anesthesia by isoflurane. A warm pad was used to maintain body temperature. Breathing rate and heart rate were monitored to reflect the depth of anesthesia. All T2 images were acquired using the following criteria: TE/TR=60/4000; Ave=4; RARE=4; slice thickness=0.6 mm.
# Constant aCSF infusion testing was performed as previously described (23). In summary, a single catheter was implanted into the lateral ventricle of a mouse under anesthesia. The catheter infused aCSF at a constant rate and monitored intracranial pressure (ICP). The Marmarou model of cerebrospinal fluid (CSF) dynamics for constant rate infusions were used to calculate parameters describing cerebrospinal fluid (CSF) dynamics by a non-linear least squares fit of the model to the intracranial pressure (ICP) data (62).
# NKCC1 = experiment: LiCl ICV pretreatment in adult IVH model, ChP pNKCC1 immunoblot; type: in vivo, mouse; conditions: adult mice; ICV LiCl 50 mM, 5 μL, 30 min. prior to blood; after 48 hrs
# Source text: P4: pups were anesthetized by hypothermia. An incision was made along the midline of the scalp to expose the skull. A 26 G needle was used to pierce the skull directly above the lateral ventricle. AAV solution or age-matched whole blood was delivered into the lateral ventricle through the piercing using glass capillary pipettes. The skin incision was closed with suture and Vetbond (3M, Minnesota). The pup was warmed and returned to cage after recovery. Whole blood was collected transcardially from littermates anesthetized by hypothermia. Adult: adult intracerebroventricular (ICV) injection followed similar procedures as P4 with the following exceptions: (1) adult mice were anesthetized using isoflurane; (2) a hand drill was used directly above the lateral ventricle; (3) blood donor was anesthetized using ketamine/xylazine.
# Tissues were quickly dissected in cold HBSS and homogenized in RIPA buffer supplemented with protease and phosphatase inhibitors. The homogenate was centrifuged at maximum speed for 10 min. to remove cellular debris. Protein concentration was determined by BCA assay (Thermo Scientific 23227). Samples were denatured in 2% SDS supplemented with 2-Mercaptoethanol by heating at 37° C. for 5 min. […] Band intensity was quantified by FIJI.
structure (smiles),measurement,setting,value
"O=C(O)CN(CCN(CC(=O)O)CC(=O)O)CC(=O)O [EDTA, ethylenediaminetetraacetic acid]",epifluorescence calcium responses to plasma,[1],disrupted
same,ventriculomegaly,"[2]; E14.5, ICV injection of blood containing EDTA, 3 weeks after the injection",severe ventriculomegaly
O=C(O)CN(CC(=O)O)c1ccccc1OCCOc1ccccc1N(CC(=O)O)CC(=O)O [BAPTA],epifluorescence calcium responses to plasma,[1],disrupted
"NCCOB(c1ccccc1)c1ccccc1 [2-APB, 2-aminoethoxydiphenyl borate]",epifluorescence calcium responses to plasma,[1],disrupted
"O=C(O)CN(CCOCCOCCN(CC(=O)O)CC(=O)O)CC(=O)O [EGTA, ethylene glycol-bis(β-aminoethyl ether)-N,N,N′,N′-tetraacetic acid]",epifluorescence calcium responses to plasma,[1],disrupted
"[Cl-].[Li+] [LiCl, lithium chloride]",epifluorescence calcium responses to plasma,[1],disrupted
same,NKCC1 phosphorylation rate (pNKCC1),NKCC1,decreased NKCC1 phosphorylation rate
same,ventriculomegaly,"[2]; E14.5, ICV LiCl 30 min. prior to blood, vs controls, MRI",more pronounced ventriculomegaly
same,ventricular enlargement in two extreme cases,"[2]; E14.5, LiCl pretreatment plus blood",over 200 fold
same,baseline intracranial pressure (ICP),[2]; LiCl pretreatment alone,does not change
same,compliance,[2]; LiCl pretreatment alone,does not change
same,ventricle size,[2]; LiCl treatment alone,did not affect ventricle size
same,intracranial pressure (ICP),[2]; LiCl-Blood mice compared to LiCl-PBS mice,unaltered
